Laboratory results as given in US20130337564A1, “Treatment of Pluripotent Cells” (Janssen Biotech, Inc., priority 2012, published 2013).
“And” between values parts separate entries of the source, which are not always exact repeats. Identical values can stand only once.

Key:
Assay type in all cases: cell-based
[1] = system: Sox17 expression in human embryonic stem cells (H9 line); assay: High content screening assay: Sox17 protein expression (differentiation); conditions: for SOX-17 Expression Fold over Wnt 3a/AA control: total intensity normalised to Wnt 3a/AA control
Experimental: (§1) Maintenance of human embryonic stem cells (H9 line) was conducted as described in Example 1. Colonies of cells were maintained in an undifferentiated, pluripotent state with passage on average every four days. Passage was performed by exposing cell cultures to a solution of collagenase (1 mg/ml; Sigma-Aldrich) for 10 to 30 minutes at 37° C. followed by gentle scraping with a pipette tip to recover cell clusters. Clusters were allowed to sediment by gravity, followed by washing to remove residual collagenase. Cell clusters were split at a 1:3 ratio for routine maintenance culture or a 1:1 ratio for immediate assay. The human embryonic stem cell lines used were maintained at passage numbers less than passage 50 and routinely evaluated for normal karyotypic phenotype and absence of mycoplasma contamination.
(§2) Cell clusters used in the assay were evenly resuspended in normal culture medium and plated onto MATRIGEL-coated 96-well Packard VIEWPLATES (PerkinElmer) in volumes of 100 μA/well. MEF conditioned medium supplemented with 8 ng/ml bFGF was used for initial plating and recovery. Daily feeding was conducted by aspirating spent culture medium from each well and replacing with an equal volume of fresh medium. Plates were maintained at 37° C., 5% CO2 in a humidified box throughout the duration of assay.
(§3) Screening was conducted using test compounds from a proprietary library of small molecules selected for their ability to inhibit GSK-3B enzyme activity. Compounds from this library were made available as 1 mM stocks, in a 96-well plate format in 50 mM HEPES, 30% DMSO. Screening compounds were tested in triplicate or duplicate sets. Primary screening assays were initiated by aspirating culture medium from each well followed by three washes in PBS to remove residual growth factors and serum. Test volumes of 80 to 100 μl per well were added back containing DMEM:F12 base medium (Invitrogen) supplemented with 0.5% FCS (HyClone) and 100 ng/ml activin A (R&D Biosystems) plus 10 μM test compound. Positive control wells contained the same base medium, substituting 10-20 ng/ml Wnt3a (R&D Biosystems) for the test compound. Negative control wells contained base medium with 0.5% FCS and activin A alone (AA only) or alternatively, 0.5% FCS without activin A or Wnt3a (no treatment). Wells were aspirated and fed again with identical solutions on day 2 of assay. On days 3 and 4, all assay wells were aspirated and converted to DMEM:F12 supplemented with 2% FCS and 100 ng/ml activin A (without test compound or Wnt3a); parallel negative control wells were maintained in DMEM:F12 base medium with 2% FCS and activin A (AA only) or alternatively, 2% FCS without activin A (no treatment).
(§4) At the end of culture, cells in 96-well plates were fixed with 4% paraformaldehyde at room temperature for 20 minutes, washed three times with PBS, and then permeabilized with 0.5% Triton X-100 for 20 minutes at room temperature. Alternatively, cells were fixed with ice cold 70% ethanol overnight at −20° C., washed three times with PBS, and then permeabilized with Triton X-100 for 5 minutes at 4° C. After fixing and permeabilizing, cells were washed again three times with PBS and then blocked with 4% chicken serum (Invitrogen) in PBS for 30 minutes at room temperature. Primary antibodies (goat anti-human Sox17 and goat anti-human HNF-3beta; R&D Systems) were diluted 1:100 in 4% chicken serum and added to cells for one hour at room temperature. Alexa Fluor 488 conjugated secondary antibody (chicken anti-goat IgG; Molecular Probes) was diluted 1:200 in PBS and added after washing the cells three times with PBS. To counterstain nuclei, 5 mM Draq5 (Alexis Biochemicals) was added for five minutes at room temperature. Cells were washed once with PBS and left in […] PBS for imaging.
(§5) Cells were imaged using an IN Cell Analyzer 1000 (GE Healthcare) utilizing the 51008bs dichroic for cells stained with Draq5 and Alexa Fluor 488. […]

[2] = system: human embryonic stem cells (H9 line); assay: High content screening assay: cell number (proliferative response)
Experimental: as §1, §2, §3, §4, §5

[3] = system: cells expressing pluripotency markers derived from human embryonic stem cells; assay: MTS viability (toxicity) assay of cells expressing pluripotency markers; set-up: Raw data (duplicate), first replicate / Average: unit not given here; conditions: for % Control / viability at 10 µM: viability of cells expressing pluripotency markers, relative to control; for viability at 10 µM: Homo sapiens, Embryonic stem cell
Experimental: Derivation and maintenance of cells expressing pluripotency makers was conducted as has been described in Example 2. Cells were grown in DMEM:F12 supplemented with 2% FCS (Invitrogen), 100 ng/ml Activin A, 20 ng/ml Wnt-3a, and 50 ng/ml IGF (R&D Biosystems). Cells were seeded at a density of 10,000 cells/cm^2 on Falcon polystyrene flasks and grown in monolayer culture at 37° C., 5% CO2, low oxygen. After reaching 60-70% confluence, cells were passed by washing the monolayer with PBS and incubating with TrypLE (Invitrogen) for 3-5 minutes to allow detachment and single cell dispersal.
Screening was conducted using test compounds from a proprietary library of small molecules selected for their ability to inhibit GSK-3B enzyme activity. Compounds from this library were made available as 1 mM stocks, in a 96-well plate format in 50 mM HEPES, 30% DMSO. For assay, cells expressing pluripotency markers were washed, counted, and plated in normal culture medium at a seeding density of 20,000 cells per well in 96-well clear-bottom, dark-well plates (Costar). This seeding density was previously determined to yield optimal monolayer formation in overnight culture. On the following day, culture medium was removed, cell monolayers were rinsed three times with PBS, and test compounds were added to the wells in 80 μl aliquots, each diluted into assay medium at a final assay concentration of 10 μM. On day 2 of the assay, medium was removed from each well and replaced with a fresh aliquot of test compounds diluted into assay medium. Assay medium on days 1 and 2 of culture consisted of DMEM:F12 supplemented with 0.5% FCS and 100 ng/ml Activin A. On days 3 and 4 of culture, medium was removed from each well and replaced with DMEM:F12 supplemented with 2% FCS and 100 ng/ml Activin A (no test compound). On day 4 of assay, 15 μl of MTS (Promega) was added to each well and plates were incubated at 37° C. for 1.5 to 4 hours prior to reading optical density at 490 nm on a SpectraMax (Molecular Devices) instrument. Statistical measures consisting of mean, standard deviation, and coefficient of variation were calculated for each duplicate set. Toxicity was calculated for each test well relative to a positive control (wells treated with Activin A and Wnt3a on days 1 and 2 of culture).
A larger proportion of the compounds have minimal or no measurable toxicity in this cell-based assay.
A small panel of select compounds was repeat tested over a narrow dose titration range, again using cells expressing pluripotency markers in a similar assay as described above.

[4] = system: HNF-3beta expression in human embryonic stem cells (H9 line); assay: High content screening assay: HNF-3beta protein expression (differentiation); conditions: for HNF-3b Expression Fold over Wnt 3a/AA control: total intensity normalised to Wnt 3a/AA control
Experimental: as §1, §2, §3, §4, §5

[5] = system: human embryonic stem cells (H9 or H1 lines); assay: Plate reader (MTS) proliferation assay; conditions: plate reader raw signal, mean of replicate wells; proliferation of human embryonic stem cells
Experimental: Maintenance of human embryonic stem cells (H9 or H1 lines) was conducted as described in Example 1. Colonies of cells were maintained in an undifferentiated, pluripotent state with passage on average every four days. Passage was performed by exposing cell cultures to a solution of collagenase (1 mg/ml; Sigma-Aldrich) for 10 to 30 minutes at 37° C. followed by gentle scraping with a pipette tip to recover cell clusters. Clusters were allowed to sediment and washed to remove residual collagenase. Cell clusters were split at a ratio of 1:3 monolayer area for routine culture or a 1:1 ratio for immediate assay. The human embryonis stem cell lines used for these examples were maintained at passage numbers less than 50 and routinely evaluated for normal karyotypic phenotype as well as absence of mycoplasm contamination.
as §2, with “in” for “in the”, “into” for “onto”, “μl/well.” for “μA/well.”, “bFGF)” for “bFGF”, “C.” for “C., 5% CO2”, “box, 5% CO2” for “box”
Primary screening assays were initiated by aspirating culture medium from each well followed by three washes in PBS to remove residual growth factors and serum. Test volumes of 80-100 μl per well were added back containing DMEM:F12 base medium (Invitrogen) supplemented with 0.5% FCS (HyClone) and 100 ng/ml activin A (R&D Biosystems) and 10 μM test compound. Positive control wells contained the same medium substituting 10-20 ng/ml Wnt3a (R&D Biosystems). Negative control wells contained base medium with 0.5% FCS without activin A or Wnt3a. Screening compounds were tested in triplicate. Wells were aspirated and fed again with identical solutions on day 2 of the assay. On days 3 and 4, all assay wells were aspirated and converted to DMEM:F 12 supplemented with 2% FCS and 100 ng/ml activin A with the exception of negative control wells which were maintained in DMEM:F12 base medium with 2% FCS.
On day 4 of assay, 15-20 μl of MTS (Promega) was added to each well and plates were incubated at 37° C. for 1.5 to 4 hours. Densitometric readings at OD490 were determined using a Molecular Devices spectrophotometer plate reader. Average readings for replicate sets were calculated along with standard deviation and coefficient of variation. Experimental wells were compared to the Activin A/Wnt3a positive control to calculate a percent control value as a measure of proliferation.
Strong hits are defined as greater than or equal to 120% of control values; moderate hits are defined as falling within the interval of 60-120% of control values. A significant number of compounds induce a proliferative response in this assay.

[6] = 10 μM test compound with 100 ng/ml activin A on days 1-2, H9, total intensity by IN Cell Analyzer, strong and moderate hits
[7] = cell number in the wells analysed for HNF-3b expression
[8] = cell number in the wells analysed for HNF-3b expression, normalised to Wnt 3a/AA control
[9] = cell number in the wells analysed for SOX-17 expression
[10] = cell number in the wells analysed for SOX-17 expression, normalised to Wnt 3a/AA control
[11] = MTS viability assay raw reading, replicate 1
[12] = MTS viability assay raw reading, replicate 2
[13] = average of duplicate MTS raw readings

## O=C1NC(=O)C2=C1c1cn(c3ncccc13)CCOCCOCCOCCn1cc2c2cccnc21 [Compound 2, 6,7,9,10,12,13,15,16-Octahydro-23H-5,26:17,22-di(metheno)dipyrido[2,3-k:3′,2′-q]pyrrolo[3,4-n][1,4,7,10,19]trioxadiazacyclohenicosine-23,25(24H)-dione]
[1]; [6]
  SOX17 Expression, Fold over Wnt 3a/AA control: 0.7921 Fold over Wnt 3a/AA control
[1]
  SOX-17 Expression Total Intensity: 296920000
  SOX-17 Expression Fold over Wnt 3a/AA control: 0.7921 fold
[2]; 10 μM test compound with 100 ng/ml activin A on days 1-2, H9, total cell number by IN Cell Analyzer, strong and moderate hits
  Proliferative Response Fold over Wnt 3a/AA control: 1.3757 Fold over Wnt 3a/AA control and 1.1246 Fold over Wnt 3a/AA control
[2]; [7]
  Proliferative Response Total cells: 5679
[2]; [8]
  Proliferative Response Fold over Wnt 3a/AA control: 1.125 fold
[2]; [9]
  Proliferative Response Total cells: 10963
[2]; [10]
  Proliferative Response Fold over Wnt 3a/AA control: 1.376 fold
[3]; [11]
  Raw data (duplicate), first replicate: 0.785
[3]; [12]
  Raw data (duplicate), second replicate: 0.790
[3]; [13]
  Average: 0.788
[3]
  % Control: 94.0%
[4]; [6]
  HNF3β Expression, Fold over Wnt 3a/AA control: 1.0087 Fold over Wnt 3a/AA control
[4]
  HNF-3b Expression Total Intensity: 463525000
  HNF-3b Expression Fold over Wnt 3a/AA control: 1.0087 fold

## CN1CCCn2cc(c3ccccc32)C2=C(C(=O)NC2=O)c2cn(c3ccccc23)CCOCCOCC1 [Compound 3, 14-Methyl-6,7,9,10,12,13,14,15,16,17-decahydro-24H-5,27:18,23-di(metheno)dibenzo[l,r]pyrrolo[3,4-o][1,4,7,11,20]dioxatriazacyclodocosine-24,26(25H)-dione]
[1]
  SOX-17 Expression Total Intensity: 162790000
  SOX-17 Expression Fold over Wnt 3a/AA control: 0.4343 fold
[2]; [7]
  Proliferative Response Total cells: 2184
[2]; [8]
  Proliferative Response Fold over Wnt 3a/AA control: 0.4324 fold
[2]; [9]
  Proliferative Response Total cells: 1766
[2]; [10]
  Proliferative Response Fold over Wnt 3a/AA control: 0.2216 fold
[3]; [11]
  Raw data (duplicate), first replicate: 0.161
[3]; [12]
  Raw data (duplicate), second replicate: 0.169
[3]; [13]
  Average: 0.165
[3]
  % Control: 6.9%
[4]
  HNF-3b Expression Total Intensity: 189875000
  HNF-3b Expression Fold over Wnt 3a/AA control: 0.4132 fold

## NCCCn1nc(C2=C(c3cn(-c4csc5ccccc45)c4ccccc34)C(=O)NC2=O)c2ccccc21 [Compound 4]
[1]; Homo sapiens, Embryonic stem cell, 10 μM test compound with 100 ng/ml activin A on days 1-2, H9, total intensity by IN Cell Analyzer, strong and moderate hits, read-out: SOX17 Expression, Fold over Wnt 3a/AA control
  fold induction at 10 µM: 0.616
[1]
  SOX-17 Expression Total Intensity: 230965000
[2]; [7]
  Proliferative Response Total cells: 2776
[2]; [9]
  Proliferative Response Total cells: 2914
[3]
  viability at 10 µM: 2.6%
[3]; [11]
  Raw data (duplicate), first replicate: 0.132
[3]; [12]
  Raw data (duplicate), second replicate: 0.137
[3]; [13]
  Average: 0.134
[4]
  HNF-3b Expression Total Intensity: 125125000

## O=C1NC(=O)C(c2nn(CCCO)c3ccccc23)=C1c1cn(-c2ccc3ccccc3c2)c2ncccc12 [Compound 19, 3-[1-(3-Hydroxypropyl)-1H-indazol-3-yl]-4-(1-naphthalen-2-yl-1H-pyrrolo[2,3-b]pyridin-3-yl)-1H-pyrrole-2,5-dione]
[3]
  viability at 10 µM: 85.2%
[4]
  HNF-3b Expression Total Intensity: 0

## O=C1NC(=O)C(c2cn(CCCO)c3ncccc23)=C1c1cc[nH]c1 [Compound 242, 4-[1-(3-Hydroxypropyl)-1H-pyrrolo[2,3-b]pyridin-3-yl]-1H,1′H-3,3′-bipyrrole-2,5-dione]
[5]
  Average (of Raw Data): 0.1152
[3]
  viability at 10 µM: 71%
[3]; MTS viability readout, average of duplicate raw data
  Average: 0.601
[3]; MTS viability readout, raw value of replicate 1
  Raw data (duplicate), first replicate: 0.590
[3]; MTS viability readout, raw value of replicate 2
  Raw data (duplicate), second replicate: 0.613
